The data set can be described thus: TABLE 1. The source says: Table printed on a drawing sheet, TABLE 1
The patent's description of the figure: FIGS. 1A, 1B, 1C, 2A, 2B, 2C, 3A, 3B AND 3C SHOW INTENSITY/RETENTION TIME CURVES FOR VARIOUS PRODUCTS.

Take `CC(C)[Si](F)(c1cccc(CCOC2CCCCO2)c1)C(C)C` (racemic) [3e - F]: the “% intact after 6 h” value is on record as above 95% and the “t1/2” value was above 100.0 h.
For the molecule `CC(C)[Si](F)(c1ccc(CCCO)cc1)C(C)C` [4c - F], the “t1/2” value was above 100.0 h.
As to `CC(C)[Si](F)(c1cccc(CCCOC2CCCCO2)c1)C(C)C` (racemic) [3d - F], the “% intact after 6 h” value is above 95% and the “t1/2” value is above 100.0 h.

The values above are taken from patent US20090035215A1, “RADIOFLUORINATION” (priority 2006, published 2009).
